These results are taken from patent US11192899B2 (MERCK PATENT GMBH, priority 2017, dated 2021).

Like-named read-outs stand apart in the source and are kept apart here.

Data set [1] deals with T1, A2B receptors (Homo sapiens, UniProt P29275).
T1 sequence (P29275 1-332): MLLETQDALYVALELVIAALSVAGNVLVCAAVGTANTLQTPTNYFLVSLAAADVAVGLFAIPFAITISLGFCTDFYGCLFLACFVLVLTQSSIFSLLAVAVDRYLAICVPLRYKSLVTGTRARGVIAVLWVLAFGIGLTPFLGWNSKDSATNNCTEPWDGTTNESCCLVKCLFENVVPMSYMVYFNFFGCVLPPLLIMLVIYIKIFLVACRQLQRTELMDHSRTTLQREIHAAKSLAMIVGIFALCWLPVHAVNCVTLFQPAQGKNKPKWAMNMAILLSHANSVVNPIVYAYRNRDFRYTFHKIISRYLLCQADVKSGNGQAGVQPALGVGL
To be noted: cited from earlier work.

In another data set the target is T2, human A1 receptor (Homo sapiens, UniProt P30542).
T2 construct: expressed in transfected cells; host or cells: CHO
T2 sequence (P30542 1-326): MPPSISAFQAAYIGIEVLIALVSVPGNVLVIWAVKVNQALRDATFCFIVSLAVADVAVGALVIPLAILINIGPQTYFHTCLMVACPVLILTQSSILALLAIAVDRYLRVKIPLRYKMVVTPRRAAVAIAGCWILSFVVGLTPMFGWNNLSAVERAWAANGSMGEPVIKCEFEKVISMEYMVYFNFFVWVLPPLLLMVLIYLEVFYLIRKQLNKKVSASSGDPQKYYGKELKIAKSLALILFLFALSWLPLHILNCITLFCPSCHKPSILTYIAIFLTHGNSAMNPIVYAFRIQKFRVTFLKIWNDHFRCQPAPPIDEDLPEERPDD
Description: cAMP HTRF functional assay, recombinant CHO cells expressing human A1 receptor, forskolin and agonist CPA. The format is cell-based.

The target in another data set is T3, human A3 receptor (Homo sapiens, UniProt P0DMS8).
T3 construct: expressed in transfected cells; host or cells: CHO
T3 sequence (P0DMS8 1-318): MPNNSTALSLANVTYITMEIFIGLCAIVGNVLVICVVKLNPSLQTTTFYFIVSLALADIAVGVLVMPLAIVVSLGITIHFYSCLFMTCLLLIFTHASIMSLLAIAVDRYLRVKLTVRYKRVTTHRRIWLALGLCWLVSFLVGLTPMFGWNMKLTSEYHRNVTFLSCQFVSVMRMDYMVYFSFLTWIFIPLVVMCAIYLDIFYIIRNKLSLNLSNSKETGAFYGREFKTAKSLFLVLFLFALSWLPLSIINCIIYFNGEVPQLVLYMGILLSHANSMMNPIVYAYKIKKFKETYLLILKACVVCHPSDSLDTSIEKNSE
Kind of data set: cAMP HTRF functional assay, recombinant CHO cells expressing human A3 receptor, forskolin and agonist IB-MECA. The format is cell-based. The procedure: (§1) The functional activities of human A2A, A2B, A1 and A3 receptors were determined by quantification of cAMP, being the second messenger for adenosine receptors.
For human A1 and A3 receptors, recombinant CHO cells, expressing either A1 or A3-receptor, were used. As both receptors couple to Gi proteins, the assay protocol was adapted:
Cells were seeded into 384-well plates, forskolin, test compounds and agonists (CPA for A1- and IB-MECA for A3-receptor) were added. After 30 min incubation, HTRF reagents (cAMP dynamic 2, Cis Bio) were added and the cellular cAMP levels were determined using the ENVISION (Perkin Elmer) plate reader.
(§2) Obtained raw data were normalized against the inhibitor control and the neural control (DMSO) and the normalized data were fitted using GeneData software.

Data set [2] is described as follows: pharmacokinetics in mouse after single intravenous and oral administration. As to conditions: for Feces iv [%]: iv @ 0.2, excretion as % of dose; for half-life / Vd / clearance / Cmax: female, mouse; for half-life / Vd / clearance: 0.2 mg/kg; for Cmax: 1 mg/kg.
Description: Female Wistar rats/mice (n=6) received either a single intravenous (bolus) injection or an oral administration (by gavage) of the tested compound.
The concentrations of the compounds in plasma, feces were quantified using an UPLC method with tandem mass spectrometric detection (LC-MS/MS) previously developed at the ‘Institute of Drug Metabolism and Pharmacokinetics’. The LCMS/MS system consisted of a Waters Acquity UPLC coupled to an AB Sciex mass spectrometer API 5500 Q-trap. […] The detection of the compounds was performed using multiple reaction monitoring in the positive ionization mode. Plasma samples were spiked with internal standard (20 μl) and the analyte was extracted from the matrix using tertiary-butyl methyl ether (tBME). The organic phase was evaporated to dryness under a stream of nitrogen. The residue was dissolved in acetonitrile/0.1% formic acid for LC-MS/MS analysis. Feces samples were homogenized with 4-times their volume of an ethanol/water mixture (4:1, v/v). Aliquots of the aqueous-ethanolic extracts were spiked with internal standard, diluted with acetonitrile/water (1:1, v/v) and directly injected into the LC-MS/MS system.
Pharmacokinetic parameters Cmax and tmax were taken from the observed data. […] AUC values were calculated by non-compartmental analysis using the linear up/log down method. Numerical data for mean plasma concentrations and derived pharmacokinetic parameters were rounded to 3 significant digits for presentation.
Another data set concerns the target T4, human A2A receptor (Homo sapiens, UniProt P29274).
T4 construct: expressed in transfected cells; host or cells: HEK293
Description: cAMP HTRF functional assay, recombinant HEK293 cells expressing human A2A receptor, agonist NECA. It counts as cell-based. The procedure:
as §1, §2

The target in data set [3] is T1, A2B receptors. Kind of data set: cAMP HTRF functional assay, recombinant HEK293 cells expressing human A2B receptor, agonist NECA. The format is cell-based. Also noted: expressed in transfected cells; host or cells: HEK293. The method, then: as §1, §2
Background: TR-FRET usually uses a lanthanide donor and a delayed reading to cut background.

The next data set deals with mouse Pan T cells. Description: rescue of cytokine (IL-2, IFN-γ) secretion of CD3/CD28-activated mouse Pan T cells inhibited by CGS-21680. It counts as cell-based. As to conditions: for IC50: Mus musculus, T-cell. The text has this: Adenosine (Ado) in tumor microenvironment can inhibit T cell activity by signaling through A2A receptors and suppress cytokine secretion by T cells. […] Potential A2A antagonists or A2A/A2B dual antagonists can rescue T cells from this inhibition. Herein, we describe the in vitro system we established using Pan T cells from mouse spleens to screen potential A2A antagonists or A2A/A2B dual antagonists for their activity. The method described involves the use of CD3/CD28 pre-coated beads to stimulate Pan T cells purified from mouse splenocytes, combined with the addition of A2A agonist along with potential A2A or A2A/A2B dual antagonists to evaluate potentiation of T cell cytokine production.
Briefly, mouse Pan T cells are purified from spleens of BALB/c mice using Pan T cell isolation kit Mouse II (MACS Miltenyi biotech Cat #Order no. 130-095-130) according to manufacturer's protocol. The purified T cells are seeded in Nunc™ 96-Well Polystyrene Round Bottom Microwell Plates in RPMI medium with 10% heat inactivated fetal bovine serum. The cells are rested at 37° C. for 1 h before activating with CD3/CD28 pre-coated beads (Dynabeads™ Mouse T-Activator CD3/CD28; Cat #11456D). After 30 min the cells are treated with varying doses of test antagonist(s). […] After 24 h incubation IL-2 levels in the supernatants and after 48 h incubation IFN-γ levels in the supernatants are measured by ELISAs according to manufacturer's protocol (R&D systems Cat #DY402 (IL-2); DY485 (IFN-γ)). Once the concentrations are calculated, the difference of cytokine concentration of DMSO control and agonist alone control is calculated (called Δ) and the percentage of rescue by each concentration of antagonist is calculated by using Microsoft Excel. These percentages of cytokine rescue in a dose dependent manner of antagonist is plotted in GraphPad Prism software and IC50 is calculated.

[4] abbreviates: 24 h, read-out: Mouse T-Cell IL-2.

T4 sequence (P29274 whole entry): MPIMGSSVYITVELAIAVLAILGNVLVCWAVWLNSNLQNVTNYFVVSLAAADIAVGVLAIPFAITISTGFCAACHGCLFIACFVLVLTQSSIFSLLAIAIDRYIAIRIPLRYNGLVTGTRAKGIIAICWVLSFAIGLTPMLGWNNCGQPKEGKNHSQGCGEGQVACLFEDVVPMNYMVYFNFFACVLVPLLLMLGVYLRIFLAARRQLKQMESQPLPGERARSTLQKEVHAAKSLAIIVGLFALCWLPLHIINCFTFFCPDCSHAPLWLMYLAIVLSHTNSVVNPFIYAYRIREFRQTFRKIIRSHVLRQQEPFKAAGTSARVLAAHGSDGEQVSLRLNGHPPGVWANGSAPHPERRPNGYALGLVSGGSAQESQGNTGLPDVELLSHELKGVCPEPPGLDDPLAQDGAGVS

For the compound `CCCn1c(=O)c2[nH]c(-c3ccc(S(=O)(=O)O)cc3)nc2n(CCC)c1=O` [DPSPX, 1,3-dipropyl-8-sulphophenylxanthine], the “affinity for A2B receptors” value on A2B receptors [1] is listed as “mid to high nM range”.
Take `O=c1[nH]c(=O)c2nc3ccccc3nc2[nH]1` [alloxazine, 2,4-dioxobenzopteridine]: the “affinity for A2B receptors” value on A2B receptors [1] is listed as “mid to high nM range”.
As for `COc1ccc(C2CCOCC2)c2ncc(NC(=O)N3CCC(C)(O)CC3)nc12` [compound 5], the IC50 at human A1 receptor is above 1000 nM; on human A3 receptor it was above 1000 nM; on human A2A receptor, below 100 nM; on A2B receptors [3], above 1000 nM. Further, the “Feces iv [%]” value in data set [2] (PK data in mouse) is on record as 4.2 @ 0.2%. The “CMax (iv) @ 1 mg/kg” value in data set [2] (PK data in mouse, iv) amounted to 908 ng/mL. In addition, in data set [2] (in vivo, iv), the half-life was 0.92 h. In data set [2] (plasma, iv), this compound returned a Vd of 1.24 L/kg. The compound also showed a clearance in data set [2] (plasma, iv) of 19.7 mL/min/kg.
For the compound `COc1ccc(-c2ccccc2)c2ncc(NC(=O)N3CCC(C)(O)CC3)nc12` [compound 2, 4-Hydroxy-4-methyl-piperidine-1-carboxylic acid (8-methoxy-5-phenyl-quinoxalin-2-yl)-amide], the IC50 was above 1000 nM at human A1 receptor; above 1000 nM on human A3 receptor; 400 nM with mouse Pan T cells (setting [4]); 600 nM in the data set on mouse Pan T cells (48 h, read-out: Mouse IFN-γ); below 100 nM on human A2A receptor; above 1000 nM at A2B receptors [3]. The “Feces iv [%]” value in data set [2] (PK data in mouse) was 12.5 @ 0.2%. This compound showed a Vd in data set [2] (plasma, iv) of 1.13 L/kg. In data set [2] (plasma, iv), this compound had a clearance of 5.65 mL/min/kg. Further, the half-life in data set [2] (plasma, iv) was 2.37 h. In addition, in data set [2] (plasma, iv), the peak level (Cmax) was 732 ng/mL.
`COc1ccc(N2CCOCC2)c2sc(NC(=O)N3CCC(C)(O)CC3)nc12` [Tozadenant, reference compound]: in data set [2] (PK data in mouse, iv), the “CL” value came out at 1478 mL/min/kg, the “Vss [L/kg]” value is 2,03 L/kg, the “t1/2 [h]” value is listed as 0,184 h and the “CMax (iv) @ 1 mg/kg” value came to 337 ng/mL. Besides, the “Feces iv [%]” value in data set [2] (PK data in mouse) is given as 23 @ 0.2%. The “Mouse IFN-γ [nM]” value in the data set on mouse Pan T cells (IFN-γ rescue, 48 h, CGS-21680 1 μM, BALB/c Pan T cells) is “NA (< 50% rescue)”. The “Mouse T-Cell IL-2 [nM]” value in the data set on mouse Pan T cells (IL-2 rescue, 24 h, CGS-21680 1 μM, BALB/c Pan T cells) is “NA (< 50% rescue)”.
With `COc1ncc(-c2ccccc2)c2ncc(NC(=O)N3CCC(C)(O)CC3)nc12` [compound 27, 4-Hydroxy-4-methyl-piperidine-1-carboxylic acid (5-methoxy-8-phenyl-pyrido[3,4-b]pyrazin-3-yl)-amide], the IC50 was below 1000 nM on human A1 receptor; above 1000 nM at human A3 receptor; 375 nM with mouse Pan T cells (setting [4]); 333 nM in the data set with mouse Pan T cells (48 h, read-out: Mouse IFN-γ); below 100 nM on human A2A receptor; above 1000 nM on A2B receptors [3]. In addition, the “Feces iv [%]” value in data set [2] (PK data in mouse) is recorded as 6.2 @ 0.2%. The Vd in data set [2] (plasma, iv) is 0.82 L/kg. This compound showed a clearance in data set [2] (plasma, iv) of 3.78 mL/min/kg. Besides, the half-life in data set [2] (plasma, iv) was 2.56 h. The concentration in data set [2] (plasma, iv) peaked (Cmax) at 983 ng/mL.
`CCCn1c(=O)[nH]c(=O)c2[nH]cnc21` [enprofylline, 3-n-propylxanthine]: the “affinity for A2B receptors” value at A2B receptors [1] is listed as “mid to high nM range”.
In the case of `COc1ccc(-c2ccccc2)c2ncc(NC(=O)c3cnc(C)s3)nc12` [compound 48], the IC50 at human A1 receptor was below 1000 nM; on human A3 receptor, above 1000 nM; at human A2A receptor, below 10 nM; at A2B receptors [3] it was below 100 nM.
Take `COc1ncc(-c2ccc(OC)c3nc(NC(=O)C4CC4)cnc23)cn1` [compound 156, N-[8-methoxy-5-(2-methoxypyrimidin-5-yl)quinoxalin-2-yl]cyclopropanecarboxamide]: the IC50 at human A1 receptor was below 1000 nM; on human A3 receptor it was above 1000 nM; on human A2A receptor, below 100 nM; at A2B receptors [3], above 1000 nM.
Take `C#CCC1(O)CCN(C(=O)Nc2cnc3c(C4CCOCC4)ccc(OC)c3n2)CC1` [compound 10]: the IC50 was below 1000 nM on human A1 receptor, above 1000 nM on human A3 receptor, below 100 nM at human A2A receptor and above 1000 nM on A2B receptors [3]. Also, the “Feces iv [%]” value in data set [2] (PK data in mouse) is 1.8 @ 0.2%. Further, the Vd in data set [2] (plasma, iv) came to 0.811 L/kg. This compound gave a clearance in data set [2] (plasma, iv) of 18.2 mL/min/kg. This compound also had a half-life in data set [2] (plasma, iv) of 0.55 h. The Cmax in data set [2] (plasma, iv) is 1090 ng/mL.

Broadly, the half-life is the time in which the quantity being followed falls by half. Read a high half-life as slow loss. In general, Cmax refers to the maximum level reached in the sampled fluid or tissue.
